From patent publication US7928099B2, “Pyrimido [4,5-D] azepine derivatives as 5-HT2c agonists” (Pfizer Inc, priority 2007, dated 2011) come the findings set out here.

For the assay, the target named is T1, human recombinant 5-HT2c receptor (Homo sapiens, UniProt P28335).
T1 construct: expressed in transfected cells; host or cells: CHO K1 (Chinese hamster ovary), stably transfected
T1 sequence (P28335 33-458): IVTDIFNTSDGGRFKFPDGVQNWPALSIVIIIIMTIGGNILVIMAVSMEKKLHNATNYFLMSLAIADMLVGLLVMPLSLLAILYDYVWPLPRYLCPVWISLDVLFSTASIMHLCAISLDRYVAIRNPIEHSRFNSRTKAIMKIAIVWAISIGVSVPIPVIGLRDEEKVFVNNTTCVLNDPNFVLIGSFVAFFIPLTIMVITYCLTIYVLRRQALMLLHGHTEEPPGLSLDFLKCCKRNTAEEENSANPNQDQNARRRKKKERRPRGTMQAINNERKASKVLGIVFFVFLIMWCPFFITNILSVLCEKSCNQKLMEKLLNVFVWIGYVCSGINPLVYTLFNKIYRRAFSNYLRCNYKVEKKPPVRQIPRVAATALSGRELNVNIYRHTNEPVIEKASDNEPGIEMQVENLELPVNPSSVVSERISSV
The experiment in a line: FLIPR fluorescent Ca2+ mobilisation agonist assay in CHO K1 cells (Method 1). In kind it is cell-based. The following applies: for Emax: CHO-K1, efficacy; for Emax / Emax %: percentage of mean maximal response to 10 μM 5-HT; for EC50: agonist affinity, FLIPR; for Emax %: efficacy. The method, then: The compounds of the invention were evaluated for biological activity by measuring the agonist affinity (EC50) and efficacy (Emax) at the human recombinant 5-HT2c receptor expressed in CHO K1 cells, using a fluorescent based Ca^2+ mobilisation assay format compatible with FLIPR technology (Method 1). Additionally, the binding activity of a compound was determined by measuring its affinity for the human recombinant 5-HT2c receptor membranes from Swiss 3T3 cells (Method 2).
The agonist affinity of the compounds were tested by measuring their ability to induce a fluorescent based Ca^2+ mobilization signal in a FLIPR assay using CHO K1 cells expressing recombinant human 5-HT2C receptor. Both agonist affinity (EC50) and efficacy (Emax) were determined.
Chinese hamster ovary cells (CHO K1) stably transfected with the 5-HT2c receptor were cultured under standard cell culture techniques. Specifically, cells were grown at 37° C. and 5% CO2 in Dulbecco's Modified Eagle's Medium (DMEM) culture media supplemented with 10% dialysed foetal calf serum (FCS), 1% non-essential amino acids, 1 mM sodium pyruvate, 800 μg/mL geneticin and 50 μg/ml zeocin. Cells were harvested for passaging and storage using trypsin-EDTA, centrifugation and resuspension in culture medium. Cells were grown to 60-80% confluency, harvested and adjusted to 15-20×10^6 cells/ml/vial in medium/10% DMSO and stored long-term at −80° C.
Cells were seeded into black-walled clear-bottomed 384 well plates 24 h before use. Frozen cells were defrosted in a 37° C. water bath and immediately transferred into 1 mL/vial 37° C. culture medium, diluted to 10 ml and DMSO removed by centrifugation. The cells were resuspended in 15 ml/vial of cell culture medium, counted and adjusted to give 500,000 cells/mL (10,000 cells/well). […] of cell suspension was added to the 384 well plates which were then incubated overnight at 37° C.
The maximum agonist response was determined with 5-HT at a final assay concentration of 10 μM in the diluent above. The minimum response was determined with Dulbeccos PBS (+CaCl2, +MgCl2) with 0.9% DMSO and 0.05% pluronic F-127. Test compounds, maximum and minimum controls were added to a 384 well polypropylene plate.
The FLIPR calcium assay reagent was diluted with assay buffer (Hank's Balanced Salt Solution (HBSS))/20 mM HEPES and 2.5 mM probenecid (diluted with 1M Sodium hydroxide and DPBS (+CaCl2, +MgCl2)).
20 μl/well FLIPR calcium assay reagent was added to the cell plates, which were incubated for 1 h at 37° C. Cell plates and compound plates were then transferred onto the FLIPR. The assay was run using the appropriate FLIPR program, which initiates the reaction by transferring 15 μL compound into the corresponding, well of the cell plate.
The statistical parameter exported from each well was the max peak height of the response.

With `CCN(C)c1nc2c(c(NCC3CC3)n1)CCNCC2` [Example 99, N-4-(cyclopropylmethyl)-N-2-ethyl-N-2-methyl-6,7,8,9-tetrahydro-5H-pyrimido[4,5-d]azepin-4-amine], the Emax is 69.5% and the EC50 was 103 nM.
For `CCN(C)c1nc2c(c(N(C)C)n1)CCNCC2` [Example 100, N-2-ethyl-N-2,N-4,N-4-trimethyl-6,7,8,9-tetra-hydro-5H-pyrimido-[4,5-d]azepine-2,4-diamine], in that order: 51.2% and 122 nM.
For `CCN(C)c1nc2c(c(NCC(C)C)n1)CCNCC2` [Example 101, N-2-ethyl-N-4-isobutyl-N-2-methyl-6,7,8,9-tetra-hydro-5H-pyrimido[4,5-d]azepine-2,4-diamine], in that order: 49.9% and 326 nM.
For `CCN(C)c1nc2c(c(NC)n1)CCNCC2` [Example 102, N-2-ethyl-N-2,N-4-dimethyl-6,7,8,9-tetra-hydro-5H-pyrimido[4,5-d]-azepine-2,4-diamine], in that order: 74.3% and 173 nM.
For the molecule `CCCNc1nc(N(C)CC2CC2)nc2c1CCNCC2` [Example 103, N-2-(cyclopropylmethyl)-N-2-methyl-N-4-propyl-6,7,8,9-tetrahydro-5H-pyrimido[4,5-d]azepine-2,4-diamine], the Emax was determined as 32.7% and the EC50 came to 449 nM.
As for `CN(Cc1ccccc1)c1nc2c(c(N3CCOCC3)n1)CCNCC2` [Example 105, N-benzyl-N-methyl-4-morpholin-4-yl-6,7,8,9-tetrahydro-5H-pyrimido-[4,5-d]azepin-2-amine], the Emax turned out to be 64.1% and the EC50 came to 202 nM.
In the case of `CN(C)c1nc2c(c(N(C)C)n1)CCNCC2` [Example 107, N,N,N′,N′-tetramethyl-6,7,8,9-tetrahydro-5H-pyrimido[4,5-d]azepine-2,4-diamine], the Emax stood at 43.2% and the EC50 stood at 363 nM.
For `c1ccc(CNc2nc(N3CCC3)nc3c2CCNCC3)cc1` [Example 108, 2-azetidin-1-yl-N-benzyl-6,7,8,9-tetrahydro-5H-pyrimido[4,5-d]azepin-4-amine], in that order: 44.4% and 149 nM.
For `C1Cc2nc(NC3CC3)nc(N3CCSCC3)c2CCN1` [Example 109, N-cyclopropyl-4-thio-morpholin-4-yl-6,7,8,9-tetrahydro-5H-pyrimido-[4,5-d]azepin-2-amine], in that order: 87.7% and 247 nM.
For `c1ccc(CCNc2nc3c(c(N4CCSCC4)n2)CCNCC3)cc1` [Example 110, N-(2-phenylethyl)-4-thiomorpholin-4-yl-6,7,8,9-tetrahydro-5H-pyrimido[4,5-d]azepin-2-amine], the Emax turned out to be 38.8% and the EC50 came out at 604 nM.
On to `CCCNc1nc2c(c(N3CCSCC3)n1)CCNCC2` [Example 111, N-propyl-4-thiomorpholin-4-yl-6,7,8,9-tetrahydro-5H-pyrimido[4,5-d]-azepin-2-amine], for which the Emax was determined as 64.3% and the EC50 amounted to 141 nM.
On to `CCNc1nc2c(c(N(C)CC3CC3)n1)CCNCC2` [Example 112, N-4-(cyclopropylmethyl)-N-2-ethyl-N-4-methyl-6,7,8,9-tetrahydro-5H-pyrimido[4,5-d]azepine-2,4-diamine], for which the Emax was 42.8% and the EC50 came out at 543 nM.
As for `CN(C)c1nc(N(C)Cc2ccccc2)nc2c1CCNCC2` [Example 113, N-2-benzyl-N-2,N-4,N-4-trimethyl-6,7,8,9-tetra-hydro-5H-pyrimido[4,5-d]azepine-2,4-diamine], the EC50 turned out to be 279 nM and the Emax % is given as 50.8%.
As for “N-benzyl-N-methyl-6,7,8,9-tetrahydro-5H-pyrimido[4,5-d]azepin-2-amine hydrochloride [Example 49]”, the EC50 was determined as 182 nM and the Emax % came to 71.20%.
